According to PMC7004148, “Flexible Fragment Growing Boosts Potency of Quorum‐Sensing Inhibitors against Pseudomonas aeruginosa Virulence” (Chemmedchem, 2019):
“And” between values parts separate entries of the source, which are not always exact repeats. Equal values may be shown once. Read-outs that look alike come from different tables or passages of the source.

Columns and labels:
PqsR [1] = target: T1, PqsR (Pseudomonas aeruginosa, UniProt Q9I4X0); test: biochemical; type: binding; design: H6SUMOPqsRc87 and T265A mutant H6SUMOPqsRc87 for ITC studies was expressed; made in house; host or cells: E. coli BL21 (λDE3)
Experimental: 3.2 Expression and Purification of H6SUMOPqsRc87
(§1) H6SUMOPqsRc87 and T265A mutant H6SUMOPqsRc87 for ITC studies was expressed and purified as previously reported.[8,9] Briefly, E. coli BL21 (λDE3) transfected with the pSUMO3_ck4_pqsRC87 or pSUMO3_ck4_T265ApqsRC87 plasmid[8] were grown in LB medium containing 50 µg mL-1 kanamycin at 37 °C to an OD600 of approximately 0.8 and expression was induced with 0.2 mM IPTG for 16 h at 16 °C. The protein was purified using nickel affinity chromatography in a one step gradient.
ITC titrations were performed as described before.[8,9] Briefly, ITC experiments were carried out using an ITC200 instrument (Microcal Inc., GE Healthcare). The titrations were performed on 50-150 µM H6SUMO-PqsRC87 in the 200 µL sample cell using 19 injections of 2 µL ligand solution (0.5-1.5 mM) every 180 s. The data were collected and the area under each peak was integrated. To correct for heats of dilution and mixing the final base line consisting of small peaks of the same size at the end of the titration were substracted.
Target sequence in this assay (Q9I4X0 87-332): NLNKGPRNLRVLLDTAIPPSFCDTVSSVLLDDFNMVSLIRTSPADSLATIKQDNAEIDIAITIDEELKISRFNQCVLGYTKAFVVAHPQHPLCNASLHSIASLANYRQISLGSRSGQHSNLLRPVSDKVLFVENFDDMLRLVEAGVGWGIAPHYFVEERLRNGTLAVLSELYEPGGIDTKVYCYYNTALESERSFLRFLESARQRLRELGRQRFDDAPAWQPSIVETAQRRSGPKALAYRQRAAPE

PqsR [2] = target: T1, PqsR; test: PqsR β-galactosidase reporter gene assay in E. coli; type: cell-based; design: expressed in transfected cells; host or cells: E. coli DH5α carrying plasmid pEAL08-2; details: in the presence of 50 nM PQS; for IC50 (inverse agonistic/antagonistic activity): n.i.=no inhibition (activity≤15 %)
Experimental: 5. E. coli reporter-gene assay & dose-response curves
PqsR Reporter gene assay in E. coli. The inverse agonistic/antagonistic activity of potential PqsR ligands was evaluated in a β-galactosidase reporter gene assay in E. coli as previously described.[26] In short, test compounds were co-incubated with E. coli DH5α cells containing the plasmid pEAL08-2,[27] which expresses PqsR and the β-galactosidase LacZ under the control of the pqsA promoter. The inverse agonistic/antagonistic activity of compounds was measured in the presence of 50 nM PQS. After incubation, galactosidase activity was quantified photometrically and expressed as ratio of controls. The given IC50 values represent the mean of at least two independent experiments using at least eight different concentrations of test compound with n = 4. Non-linear regression analysis was done using the log (inhibitor) vs response model included in the GrapPad Prism 5.0 software package.
Target sequence in this assay (Q9I4X0 whole entry): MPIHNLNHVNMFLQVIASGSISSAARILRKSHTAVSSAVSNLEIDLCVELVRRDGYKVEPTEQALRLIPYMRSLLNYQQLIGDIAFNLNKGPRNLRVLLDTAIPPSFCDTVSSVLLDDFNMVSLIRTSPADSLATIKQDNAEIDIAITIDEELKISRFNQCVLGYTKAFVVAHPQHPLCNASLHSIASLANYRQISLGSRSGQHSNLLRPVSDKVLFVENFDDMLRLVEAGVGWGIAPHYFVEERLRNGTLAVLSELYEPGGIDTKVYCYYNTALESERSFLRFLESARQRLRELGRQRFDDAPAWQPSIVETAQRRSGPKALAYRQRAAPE

[3] = test system: pyocyanin in P. aeruginosa PA14; test: Pyocyanin assay in P. aeruginosa PA14 cultures; type: cell-based, Pseudomonas aeruginosa PA14; details: for IC50: mean of at least two independent experiments, SD<25 %
Experimental: 6. Effects in P. aeruginosa
Pyocyanin Assay. The inhibition of virulence factor pyocyanin was measured as described previously[26] following a procedure established by Essar et al.[28] Briefly, Pseudomonas aeruginosa PA14 cultures were grown in the presence of inhibitors or DMSO as control for 16 h. Pyocyanin was determined photometrically after extraction of the cultures with chloroform and re-extraction with 0.2 M HCl. Protonated red colored pyocyanin was determined by measuring OD520 and normalizing to OD600. None of the compound impaired bacterial viability as observed by the OD600 parameter. Inhibition values were expressed in relation to the DMSO control. Each value is the mean of at least two independent experiments with n=3.
The given IC50 values represent the mean of at least two experiments using at least five different concentrations. Curve fitting was performed using the log (inhibitor) vs response model with constrained bottom = 0 and top =100 (GraphPad Prism 5.0).
Figure S4: Inhibition of virulence factor pyocyanin was evaluated in the clinical isolate PA14.
Representative dose-response curves a) compound 11 b) compound 20. Black dotes (•) represent the reduction of pyocyanin in presents of a given compound concentration relative to DMSO control (= 0 %). The continuous black line is the none -linear regression analysis to […]
(1 picture or pasted object on this page, not shown here)

[4] = test system: HHQ levels in PA14pqsH strain; test: HHQ quantification in PA14pqsH cultures (UHPLC-MS/MS); type: cell-based; details: Pseudomonas aeruginosa, read-out: HHQ inhibition
Experimental: (§2) determine IC50 values using a log (inhibitor) vs. response model with constrains (bottom = 0; top =100) (Graph Pad Prism 5.04).
(§3) HHQ and HQNO Quantification. Extracellular HHQ and HQNO were measured as previously reported[29] following a modified procedure of Lépine et al.:[30] Briefly, P. aeruginosa PA14pqsH cultures were grown in the presence of DMSO as a control or DMSO solutions of inhibitors for 17 h. HHQ and HQNO were quantified from ethyl acetate extracts using 5,6,7,8-tetradeutero-2-heptyl-4(1H)-quinolone (HHQ-d4) as internal standard (IS).
(§4) UHPLC-MS/MS analysis was performed as described in detail by Storz et al.[31] The following ions were monitored (mother ion [m/z], product ion [m/z], scan time [s], scan width [m/z], […]
(§5) quantification was performed using Xcalibur software with the use of a calibration curve relative to the area of the IS. Given data represent the mean of at least two independent experiments with n=3 and were expressed as percentage inhibition relative to DMSO control.

PqsRT265A = target: T2, PqsRT265A (Pseudomonas aeruginosa, UniProt Q9I4X0, T265A); test: ITC thermodynamic signature, PqsRwt versus PqsRT265A mutant; type: binding; details: comparison of thermodynamic signatures (SI, Figure S3)
T2 construct: H6SUMOPqsRc87 and T265A mutant H6SUMOPqsRc87 for ITC studies was expressed; made in house; host or cells: E. coli BL21 (λDE3)
T2 sequence (Q9I4X0 87-332 T265A): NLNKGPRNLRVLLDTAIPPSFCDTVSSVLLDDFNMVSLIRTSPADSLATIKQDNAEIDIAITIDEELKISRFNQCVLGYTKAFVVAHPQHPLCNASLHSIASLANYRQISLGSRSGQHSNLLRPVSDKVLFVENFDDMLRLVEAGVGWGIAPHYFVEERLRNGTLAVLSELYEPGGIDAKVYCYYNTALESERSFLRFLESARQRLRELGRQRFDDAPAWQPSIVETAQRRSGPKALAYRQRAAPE
Experimental: 3. Isothermal Titration Calorimetry
3.1 Site-directed Mutagenesis: PqsRT265A mutant
The plasmid pSUMO3_ck4_T265ApqsRC87 was generated as previously described[8] using QuikChange Site-Directed Mutagenesis Kit (Stratagene) following the manufacturer’s instructions. The following primer were used: forward 5'
3. PCR condition to amplify the T265A gene: 16 cycles with 35s denaturation at 95 °C, 60 s annealing at 55 ° C, and 13 min extension. The generated plasmid was transformed via electroporation into E. coli BL21 3.2 Expression and Purification of H6SUMOPqsRc87
as §1
ITC titrations were performed as described before.[8,9] Briefly, ITC experiments were carried out using an ITC200 instrument (Microcal Inc., GE Healthcare). The titrations were performed on 50-150 µM H6SUMO-PqsRC87 in the 200 µL sample cell using 19 injections of 2 µL ligand solution (0.5-1.5 mM) every 180 s. […]

[5] = test system: HQNO levels in PA14pqsH strain; test: HQNO quantification in PA14pqsH cultures (UHPLC-MS/MS); type: cell-based; details: Pseudomonas aeruginosa, read-out: HQNO inhibition
Experimental: as §2, §3, §4, §5

[6] = Table 1, EE=−ΔH/(heavy atom count)
[7] = Table 1, LE=−ΔG/(heavy atom count)

SMILES	Kd (PqsR [1])	EE (PqsR [1]; [6])	ΔG (PqsR [1]; Table 1, ITC at 298 K)	ΔH (PqsR [1]; Table 1, ITC at 298 K)	−TΔS (PqsR [1]; Table 1, ITC at 298 K)	LE (PqsR [1]; [7])	further results
CC(C)(C)c1ccc(C(=O)NO)cc1 [Compound 1]	4.1 ± 0.6 µM	0.63 kcal/mol	-7.4 ± 0.1 kcal/mol	-8.9 ± 0.2 kcal/mol	1.5 ± 0.3 kcal/mol	0.53 kcal/mol	–
Nc1nnc(-c2cccc(C(F)(F)F)c2)o1 [Compound 2]	1.3 ± 0.3 µM	0.53 kcal/mol	-8.0 ± 0.1 kcal/mol	-8.5 ± 0.5 kcal/mol	0.4 ± 0.6 kcal/mol	0.50 kcal/mol	–
Nc1cccc(Br)n1 [Compound 3]	10 ± 1.3 µM	1.17 kcal/mol	-6.8 ± 0.1 kcal/mol	-9.3 ± 0.4 kcal/mol	2.5 ± 0.4 kcal/mol	0.85 kcal/mol	IC50 (inverse agonistic/antagonistic activity) (PqsR [2]): did not show significant antagonistic activity
Nc1ccc(Br)cn1 [Compound 4]	> 50 µM	–	–	–	–	–	–
Nc1cc(Br)ccn1 [Compound 5]	21.3 ± 3.4 µM	0.72 kcal/mol	-6.4 ± 0.1 kcal/mol	-5.8 ± 0.1 kcal/mol	-0.6 ± 0.2 kcal/mol	0.80 kcal/mol	–
Nc1ncccc1Br [Compound 6]	> 50 µM	–	–	–	–	–	–
Nc1cccc(C(F)(F)F)n1 [Compound 7]	3.1 ± 0.5 µM	1.05 kcal/mol	-7.5 ± 0.1 kcal/mol	-11.5 kcal/mol and -11.5 ± 0.9 kcal/mol	3.7 ± 1 kcal/mol	0.70 kcal/mol	inhibition at 250 µM ([3]; Pseudomonas aeruginosa, PA14, read-out: Pyocyanin inhibition): 43%
CC(=O)Nc1cccc(C(F)(F)F)n1 [Compound 8]	–	–	–	–	–	–	K D (ITC) (PqsR [1]; Table 1, ITC at 298 K, mean±SD, at least two independent experiments, >50 = no heat release detectable at solubility maximum): abolished the affinity; IC50 (inverse agonistic/antagonistic activity) (PqsR [2]): n.i.
Nc1cc(C#CC2CC2)cc(C(F)(F)F)n1 [Compound 9]	7.5 ± 0.1 µM	–	–	–	–	–	-TΔS (PqsR [1]; Table S1): -3.8 ± 0.6 kcal/mol; ΔG (PqsR [1]; Table S1): -6.9 ± 0.0 kcal/mol; ΔH (PqsR [1]; Table S1): -3.7 ± 0.6 kcal/mol and -3.7 kcal/mol; EE (PqsR [1]; Table S1, enthalpic efficiency): 0.23 kcal/mol; LE (PqsR [1]; Table S1, ligand efficiency): 0.43 kcal/mol; IC50 (inverse agonistic/antagonistic activity) (PqsR [2]): n.i.
Nc1cc(-c2ccc(F)cc2)cc(C(F)(F)F)n1 [Compound 10]	–	–	–	–	–	–	Inverse agonistic/antagonistic activity at a given concentration (PqsR [2]; @ 100 μM): 29 % @ 100 μM
Nc1cc(NCc2ccc(F)cc2)cc(C(F)(F)F)n1 [Compound 11]	0.6 ± 0.2 µM	–	–	–	–	–	IC50 ([3]; Pseudomonas aeruginosa, PA14, read-out: Pyocyanin IC50, PA14 cultures, photometric quantification): 105 ± 13 µM; IC50 ([3]; read-out: Pyocyanin IC50, PA14 cultures, photometric quantification): 102 µM; inhibition at 200 µM [4]: 48 ± 4%; -TΔS (PqsR [1]; Table S1): 1.0 ± 0.8 kcal/mol; ΔG (PqsR [1]; Table S1): -8.4 ± 0.2 kcal/mol; ΔH (PqsR [1]; Table S1): -9.8 ± 0.8 kcal/mol; EE (PqsR [1]; Table S1, enthalpic efficiency): 0.49 kcal/mol; LE (PqsR [1]; Table S1, ligand efficiency): 0.42 kcal/mol; Enthalpic contribution, PqsRwt versus PqsRT265A (PqsRT265A): no significant difference in the enthalpic contribution; inhibition at 200 µM [5]: 36 ± 3%
